Measured values reported in patent publication US9695155B2, “Herbicidal substituted pyrimidinyloxy benzene compounds” (E. I. DU PONT DE NEMOURS AND COMPANY, priority 2013, dated 2017).

What was measured:
sedge, umbrella = test: Test C flooded paddy test; format: in vivo, Cyperus difformis; conditions: Flood, scale 0 to 100 (0 no effect, 100 complete control), 13 to 15 days
Outline: (§1)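 Pots were flooded to 3 cm above the soil surface at treatment, compound applied directly to the paddy water, and that depth held throughout. Plants were kept in a greenhouse for 13 to 15 days, then visually rated against untreated controls.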

barnyardgrass [1] = test: Test C flooded paddy test; format: in vivo, Echinochloa crus-galli; conditions: Flood, scale 0 to 100 (0 no effect, 100 complete control), 13 to 15 days
Outline: as §1

velvetleaf = test: Test E preemergence; format: in vivo, Abutilon theophrasti; conditions: for Velvetleaf plant response rating: scale 0 to 100 (0 no effect, 100 complete control); for Plant response rating, Velvetleaf: 125 g ai/ha, scale 0 to 100, 0 no effect, 100 complete control
Text: (§2) Seeds of plant species selected from corn (Zea mays), soybean (Glycine max), velvetleaf (Abutilon theophrasti), lambsquarters (Chenopodium album), wild poinsettia (Euphorbia heterophylla), palmer pigweed (Amaranthus palmeri), waterhemp (common waterhemp, Amaranthus rudis), surinam grass (Brachiaria decumbens), large (Lg) crabgrass (Digitaria sanguinalis), Brazilian crabgrass (Digitaria horizontalis), fall panicum (Panicum dichotomiflorum), giant foxtail (Setaria faberii), green foxtail (Setaria viridis), goosegrass (Eleusine indica), johnsongrass (Sorghum halepense), ragweed (common ragweed, Ambrosia elatior), barnyardgrass (Echinochloa crus-galli), sandbur (southern sandbur, Cenchrus echinatus), arrowleaf sida (Sida rhombifolia), Italian ryegrass (Lolium multiflorum), dayflower (Virginia (VA) dayflower, Commelina virginica), field bindweed (Convolvulus arvensis), morningglory (Ipomoea coccinea), nightshade (eastern black nightshade, Solanum ptycanthum), kochia (Kochia scoparia), yellow nutsedge (Cyperus esculentus), cocklebur (common cocklebur, Xanthium strumarium), smartweed (ladysthumb smartweed, and hairy beggarticks (Bidens pilosa), were planted into a silt loam soil and treated preemergence with test chemicals formulated in a non-phytotoxic solvent mixture which included a surfactant.
(§3) At the same time, plants from these crop and weed species and also horseweed (Canada horseweed, Conyza canadensis), waterhemp_RES1, (ALS & Triazine resistant common waterhemp, Amaranthus rudis), and waterhemp_RES2, (ALS & HPPD resistant common waterhemp, Amaranthus rudis) were planted in pots containing Redi-Earth® planting medium (Scotts Company, 14111 Scottslawn Road, Marysville, Ohio 43041) comprising spaghnum peat moss, vermiculite, wetting agent and starter nutrients were treated with postemergence applications of test chemicals formulated in the same manner. Plants ranged in height from 2 to 18 cm for postemergence treatments (1- to 4-leaf stage). Treated plants and controls were maintained in a greenhouse for 14 to 21 days, after which time all species were compared to controls and visually evaluated. Plant response ratings, summarized in Table E, are based on a scale of 0 to 100 where 0 is no effect and 100 is complete control. A dash (-) response means no test result.

lambsquarters = test: Test E preemergence; format: in vivo, Chenopodium album; conditions: for Lambsquarters plant response rating: scale 0 to 100 (0 no effect, 100 complete control); for Plant response rating, Lambsquarters: 125 g ai/ha, scale 0 to 100, 0 no effect, 100 complete control
Text: as §2, §3

surinam grass = test: Test E preemergence; format: in vivo, Brachiaria decumbens; conditions: for Surinam Grass plant response rating: scale 0 to 100 (0 no effect, 100 complete control); for Plant response rating, Surinam Grass: 125 g ai/ha, scale 0 to 100, 0 no effect, 100 complete control
Text: as §2, §3

large (Lg) crabgrass = test: Test E preemergence; format: in vivo, Digitaria sanguinalis; conditions: for Crabgrass, Large plant response rating: scale 0 to 100 (0 no effect, 100 complete control); for Plant response rating, Crabgrass, Large: 125 g ai/ha, scale 0 to 100, 0 no effect, 100 complete control
Text: as §2, §3

Brazilian crabgrass = test: Test E preemergence; format: in vivo, Digitaria horizontalis; conditions: for Crabgrass, Brazil plant response rating: scale 0 to 100 (0 no effect, 100 complete control); for Plant response rating, Crabgrass, Brazil: 125 g ai/ha, scale 0 to 100, 0 no effect, 100 complete control
Text: as §2, §3

barnyardgrass [2] = test: Test E preemergence; format: in vivo, Echinochloa crus-galli; conditions: for Barnyardgrass plant response rating: scale 0 to 100 (0 no effect, 100 complete control); for Plant response rating, Barnyardgrass: scale 0 to 100, 0 no effect, 100 complete control
Text: as §2, §3

arrowleaf sida = test: Test E preemergence; format: in vivo, Sida rhombifolia; conditions: for Arrowleaf Sida plant response rating: scale 0 to 100 (0 no effect, 100 complete control); for Plant response rating, Arrowleaf Sida: scale 0 to 100, 0 no effect, 100 complete control
Text: as §2, §3

Compound | Plant response rating, Sedge, Umbrella (sedge, umbrella; 31 g ai/ha) | Plant response rating, Sedge, Umbrella (sedge, umbrella; 62 g ai/ha) | Plant response rating, Sedge, Umbrella (sedge, umbrella; 125 g ai/ha) | Plant response rating, Sedge, Umbrella (sedge, umbrella; 250 g ai/ha) | Plant response rating, Barnyardgrass (barnyardgrass [1]; 31 g ai/ha) | Plant response rating, Barnyardgrass (barnyardgrass [1]; 62 g ai/ha) | Plant response rating, Barnyardgrass (barnyardgrass [1]; 125 g ai/ha) | Plant response rating, Barnyardgrass (barnyardgrass [1]; 250 g ai/ha) | Velvetleaf plant response rating (velvetleaf; 31 g ai/ha) | Velvetleaf plant response rating (velvetleaf; 62 g ai/ha) | Plant response rating, Velvetleaf (velvetleaf) | Lambsquarters plant response rating (lambsquarters; 31 g ai/ha) | Lambsquarters plant response rating (lambsquarters; 62 g ai/ha) | Plant response rating, Lambsquarters (lambsquarters) | Surinam Grass plant response rating (surinam grass; 31 g ai/ha) | Surinam Grass plant response rating (surinam grass; 62 g ai/ha) | Plant response rating, Surinam Grass (surinam grass) | Crabgrass, Large plant response rating (large (Lg) crabgrass; 16 g ai/ha) | Crabgrass, Large plant response rating (large (Lg) crabgrass; 31 g ai/ha) | Crabgrass, Large plant response rating (large (Lg) crabgrass; 62 g ai/ha) | further results
N#Cc1cccc(Oc2ncc(F)cn2)c1-n1cc(Br)cn1 [Compound 62] | 0 | 50 | 90 | 100 | 0 | 0 | 0 | 40 | – | – | – | – | – | – | – | – | – | – | – | – | –
N#Cc1cnn(-c2c(C#N)cccc2Oc2ncc(F)cn2)c1 [Compound 111] | – | – | – | – | – | – | – | – | 10 | 60 | 75 | 80 | 98 | 100 | 0 | 0 | 25 | 15 | 35 | 90 | Velvetleaf plant response rating (velvetleaf; 16 g ai/ha): 5; Lambsquarters plant response rating (lambsquarters; 16 g ai/ha): 50; Surinam Grass plant response rating (surinam grass; 16 g ai/ha): 0; Plant response rating, Crabgrass, Large (large (Lg) crabgrass): 100; Crabgrass, Brazil plant response rating (Brazilian crabgrass; 16 g ai/ha): 0; Crabgrass, Brazil plant response rating (Brazilian crabgrass; 31 g ai/ha): 30; Crabgrass, Brazil plant response rating (Brazilian crabgrass; 62 g ai/ha): 75; Plant response rating, Crabgrass, Brazil (Brazilian crabgrass): 100; Barnyardgrass plant response rating (barnyardgrass [2]; 16 g ai/ha, preemergence): 0; Barnyardgrass plant response rating (barnyardgrass [2]; 31 g ai/ha, preemergence): 0; Plant response rating, Barnyardgrass (barnyardgrass [2]; Preemergence, 62 g ai/ha): 0; Plant response rating, Barnyardgrass (barnyardgrass [2]; preemergence, 125 g ai/ha): 35; Arrowleaf Sida plant response rating (arrowleaf sida; 16 g ai/ha, preemergence): 40; Arrowleaf Sida plant response rating (arrowleaf sida; 31 g ai/ha, preemergence): 50; Plant response rating, Arrowleaf Sida (arrowleaf sida; Preemergence, 62 g ai/ha): 70; Plant response rating, Arrowleaf Sida (arrowleaf sida; preemergence, 125 g ai/ha): 98
N#Cc1cnn(-c2c(Oc3ncc(Cl)cn3)cccc2C(F)F)c1 [Compound 236] | 0 | 20 | 60 | 80 | 0 | 0 | 0 | 20 | – | – | – | – | – | – | – | – | – | – | – | – | –
FCc1cccc(Oc2ncc(Br)cn2)c1-n1cc(C(F)(F)F)cn1 [Compound 120] | 0 | 0 | 60 | 85 | 0 | 0 | 60 | 85 | – | – | – | – | – | – | – | – | – | – | – | – | –
FCc1cccc(Oc2ncc(Cl)cn2)c1-n1cc(Cl)cn1 [Compound 250] | – | – | – | – | – | – | – | – | 75 | 75 | 100 | 0 | 0 | 100 | 0 | 0 | 0 | 0 | 0 | 0 | Plant response rating, Crabgrass, Large (large (Lg) crabgrass): 100; Crabgrass, Brazil plant response rating (Brazilian crabgrass; 16 g ai/ha): 0; Crabgrass, Brazil plant response rating (Brazilian crabgrass; 31 g ai/ha): 0; Crabgrass, Brazil plant response rating (Brazilian crabgrass; 62 g ai/ha): 5; Plant response rating, Crabgrass, Brazil (Brazilian crabgrass): 98; Barnyardgrass plant response rating (barnyardgrass [2]; 16 g ai/ha, preemergence): 0; Barnyardgrass plant response rating (barnyardgrass [2]; 31 g ai/ha, preemergence): 0; Barnyardgrass plant response rating (barnyardgrass [2]; 62 g ai/ha, preemergence): 0; Plant response rating, Barnyardgrass (barnyardgrass [2]; preemergence, 125 g ai/ha): 25; Arrowleaf Sida plant response rating (arrowleaf sida; 16 g ai/ha, preemergence): 0; Arrowleaf Sida plant response rating (arrowleaf sida; 31 g ai/ha, preemergence): 20; Arrowleaf Sida plant response rating (arrowleaf sida; 62 g ai/ha, preemergence): 60; Plant response rating, Arrowleaf Sida (arrowleaf sida; preemergence, 125 g ai/ha): 100
